Outcome and dissociation rate data for 19 compounds are collected here from PubChem BioAssay AID488786 (NMMLSC, 2010).

Activity calls are given as the source filed them.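 Rule for the calls: active = compounds whose fitted off-rate of the fluorescent probe exceeds 0.05 per second; inactive = the rest.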

The assay concerns the target Integrin alpha-4 (Homo sapiens) (UniProt P13612). As to the kind of experiment: VLA-4 ligand dissociation kinetics with analogs – U937 cells, flow cytometry, mechanism study for VLA-4 allosteric modulator project, SAR follow-up (AID 488786). The following applies: LDV-FITC dissociation rate; for dissociation rate: at 100 µM, stronger effect = higher value.

Sequence of Integrin alpha-4 (Homo sapiens) (P13612 whole entry, looked up): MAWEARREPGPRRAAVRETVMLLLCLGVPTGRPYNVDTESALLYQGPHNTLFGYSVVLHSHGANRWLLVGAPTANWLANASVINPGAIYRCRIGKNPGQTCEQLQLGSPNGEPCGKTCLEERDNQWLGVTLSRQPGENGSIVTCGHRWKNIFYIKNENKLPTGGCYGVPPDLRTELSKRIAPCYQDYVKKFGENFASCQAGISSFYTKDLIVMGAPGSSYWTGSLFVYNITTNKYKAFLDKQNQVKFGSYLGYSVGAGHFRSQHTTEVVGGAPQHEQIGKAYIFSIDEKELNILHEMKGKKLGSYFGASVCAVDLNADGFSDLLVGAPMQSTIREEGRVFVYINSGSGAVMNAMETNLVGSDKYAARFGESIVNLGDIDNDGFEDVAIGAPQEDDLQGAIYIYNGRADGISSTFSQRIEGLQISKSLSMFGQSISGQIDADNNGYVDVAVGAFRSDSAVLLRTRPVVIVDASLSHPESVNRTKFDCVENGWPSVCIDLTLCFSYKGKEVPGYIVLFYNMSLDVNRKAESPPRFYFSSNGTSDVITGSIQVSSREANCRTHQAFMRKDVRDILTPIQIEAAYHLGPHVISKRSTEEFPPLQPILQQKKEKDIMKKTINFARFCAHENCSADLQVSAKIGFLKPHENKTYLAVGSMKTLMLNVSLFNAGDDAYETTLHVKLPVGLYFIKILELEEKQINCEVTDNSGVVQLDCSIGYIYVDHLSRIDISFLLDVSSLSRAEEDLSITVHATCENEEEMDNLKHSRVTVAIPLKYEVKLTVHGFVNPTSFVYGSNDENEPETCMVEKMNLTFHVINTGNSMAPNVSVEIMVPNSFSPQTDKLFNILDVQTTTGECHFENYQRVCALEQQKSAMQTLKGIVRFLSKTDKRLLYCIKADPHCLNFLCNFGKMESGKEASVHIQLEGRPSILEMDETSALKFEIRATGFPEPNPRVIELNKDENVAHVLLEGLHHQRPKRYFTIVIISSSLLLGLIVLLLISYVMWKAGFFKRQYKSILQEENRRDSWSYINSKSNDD

As to `COC(=O)C1CN(C#N)N(c2ccc(Cl)cc2)C12c1ccccc1-c1ccccc12` (centres undefined), the result was inactive.
Same read-out and setting: under `O=C(COc1ccc(/C=N/NC(=O)c2cc3ccccc3o2)cc1Cl)Nc1ccccc1` stands “inactive”.
On to `c1ccc2c(-c3ccc(OCCN4CCCCC4)cc3)c(-c3ccsc3)sc2c1`, for which the dissociation rate is 0.016 s⁻¹ (inactive).
Regarding `c1ccc2c(-c3ccc(OCCN4CCCC4)cc3)c(-c3ccsc3)sc2c1`, the dissociation rate is 0.048 s⁻¹ (inactive).
Turning to `Cc1ccc(NC(=O)c2cc(N3C(=O)CCC3=O)ccc2N2CCOCC2)cc1`, the result was inactive.
In the case of `COc1cccc(-c2sc3ccccc3c2-c2ccc(OCCN(C)C)cc2)c1`, the dissociation rate is 0.06 s⁻¹.
With `FC(F)Oc1ccc(C2=Nn3c(nnc3-c3ccccc3Cl)SC2)cc1OCC1CC1`, the outcome was inactive.
On to `CC(NC(=O)/C(C#N)=C/c1ccc(Cl)c([N+](=O)[O-])c1)c1ccccc1` (centres undefined), for which the result was inactive.
With `Cc1ccc(NC(=O)c2cc(N3C(=O)CCC3=O)ccc2N2CCOCC2)cc1Cl`, the outcome was inactive.
On the same count and under the same terms, under `O=C1NC(=O)C2(N1)c1ccccc1-c1ccccc12` stands “inactive”; under `CCOC(=O)COc1ccccc1/C=C\[N+](=O)[O-]`, “inactive”.
Consider `CCOCCCNC(=O)/C(C#N)=C/c1ccc(Cl)c([N+](=O)[O-])c1`, for which the result was inactive.
As for `COC(=O)[C@@H]1[C@@H](C(=O)OC)C2(c3ccccc3-c3ccccc32)N(c2ccc(Cl)cc2)N1C#N`, the result was inactive.
As to `COC(=O)C1OC2(OC1C(=O)OC)c1ccccc1-c1ccccc12` (centres undefined), the result was inactive.
With `COc1ccc(-c2sc3ccccc3c2-c2ccc(OCCN(C)C)cc2)cc1`, the dissociation rate was 0.08 s⁻¹.
Turning to `CCOC(=O)/C(=C\c1ccc(OC(F)F)cc1)C1=Nn2c(nnc2-c2ccc(Cl)cc2)SC1`, the result was inactive.
As for `COc1cccc(-c2sc3ccccc3c2-c2ccc(OCCN3CCCC3)cc2)c1`, the dissociation rate was 0.065 s⁻¹.
Consider `CN(C)CCOc1ccc(-c2c(-c3ccccc3)sc3ccccc23)cc1`, for which the dissociation rate is 0.06 s⁻¹.
Take `c1ccc(-c2sc3ccccc3c2-c2ccc(OCCN3CCCC3)cc2)cc1`: the dissociation rate was 0.055 s⁻¹.
